The results in this text go back to ChEMBL document CHEMBL4622919, “Hypersonins A-D, Polycyclic Polyprenylated Acylphloroglucinols with a 1,2-seco-Homoadamantane Architecture from Hypericum wilsonii” (J Nat Prod, 2020).

In this test the test system is Splenocyte. Kind of test: Immunosuppressive activity in BALB/c mouse splenocytes assessed as reduction in anti-mouse CD3/CD28-induced cell proliferation after 72 hrs by flow cytometric analysis. The test is classed as functional, cell-based.

What is called IC50 is the midpoint of a concentration-inhibition curve. For the compound `COC(=O)[C@]12C[C@H](C(C)(C)O)C(C)(C)[C@H]1C[C@H]1C[C@@](CC=C(C)C)(C2=O)C(O)=C(C(=O)C(C)C)C1(C)C`, the IC50 amounted to 8.3 µM.
